# Values of other authors, collected in patent US20170042890A1, “METHODS OF REDUCING DECLINE IN VITAL CAPACITY” (Cytokinetics, Inc., priority 2014, published 2017).
# Legend:
# [1] = administered concomitantly with tirasemtiv; prior studies; cited from earlier work
# ALS = settings: cited from earlier work
structure (smiles),measurement,setting,value
Nc1nc2ccc(OC(F)(F)F)cc2s1 [riluzole],Riluzole exposure,[1],approximately doubled
same,Effect on measurable parameters of neuromuscular or pulmonary function,ALS,does not improve
